For one assay, the target named is T1, EGFR L858R-T790M (Homo sapiens, UniProt P00533, L858R/T790M).
T1 construct: NCI-H1975 (harboring EGFR heterozygous L858R-T790M mutations); host or cells: NCI-H1975
The assay is described as follows: EGFR degradation, Total EGFR (L858R-specific) HTRF, NCI-H1975. The note with it: NCI-H1975 cells, 6 hours, Total EGFR HTRF, read-out: H1975 EGFR DC50. Type of assay: cell-based. Summed up:
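HTRF read-outs: pY1068 phospho-EGFR for IC50; total EGFR (pan-EGFR in A431, L858R-specific in mutant lines) for DC50. Compounds were titrated 11 points, half-log, from 10 μM in duplicate onto cells in 10% FBS RPMI, incubated 6 h at 37°C.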
(TR-FRET usually uses a lanthanide donor and a delayed reading to cut background.)

The target in the next assay is EGFR L858R (Homo sapiens, UniProt P00533, L858R). Kind of assay: EGFR degradation, Total EGFR (L858R-specific) HTRF, NCI-H3255. Type of assay: cell-based. Set-up: NCI-H3255 (harboring EGFR heterozygous L858R mutation); host or cells: NCI-H3255. The settings on record: NCI-H3255 cells, 6 hours, Total EGFR HTRF, read-out: H3255 EGFR DC50. The text has this:
NCI-H1975 (harboring EGFR heterozygous L858R-T790M mutations) and NCI-H3255 (harboring EGFR heterozygous L858R mutation) were purchased from ATCC and NCI, respectively. NCI-H1975+CS (harboring EGFR heterozygous L858R-T790M-C797S mutations) was generated using CRISPR technology to introduce the additional C797S mutation by Horizon Discovery. A431 (harboring EGFR wildtype) was purchased from ATCC. RPMI 1640 no-phenol red medium and fetal bovine serum (FBS) were purchased from Gibco (Grand Island, NY, USA). Cell culture flasks and 384-well microplates were acquired from VWR (Radnor, PA, USA). Phosphorylated (pY1068) EGFR and Total EGFR (using L858R-specific detection antibody and pan-EGFR antibody for EGFR mutant cell lines and EGFR wild-type cell lines, respectively) HTRF assay kits were purchased from Cisbio (Bedford, MA, USA).
Degradation of EGFR protein containing L858R mutation or wild-type was determined based on quantification of FRET signal using a Total EGFR (L858R-specific or pan-EGFR detecting) HTRF assay kit. Phospho-EGFR (pEGFR) inhibition was determined based on quantification of FRET signal using a pY1068 EGFR HTRF assay kit. In separate assay plates, test compounds were added to the 384-well plate from a top concentration of 10 μM with 11 points, half log titration in duplicates. For each assay, 12.5 uL of cells suspended in assay media (RPMI 1640 no-phenol red medium+10% FBS) at cell densities indicated for each cell line in Table 8 below were dispensed using a multi-channel pipette to 384-well low volume white HTRF microplates containing a duplicate concentration range of test compounds and DMSO controls. The plates were kept at 37° C. with 5% CO2 for 6 hours and then incubated with either phospho EGFR or Total EGFR HTRF detection antibodies according to the cell line and EGFR mutant being assayed. Cells treated in the absence of the test compound were the negative control. Positive control was set by wells containing all reagents but no cells. FRET signal was acquired on EnVision™ Multilabel Reader (PerkinElmer, Santa Clara, CA, USA). Compound concentration that achieves 50% degradation and inhibition was reported as DC50 and IC50, respectively.

Structures are written as SMILES. Read-outs that look alike come from different tables or passages of the source.

Sequence of EGFR L858R (P00533 25-1210 L858R): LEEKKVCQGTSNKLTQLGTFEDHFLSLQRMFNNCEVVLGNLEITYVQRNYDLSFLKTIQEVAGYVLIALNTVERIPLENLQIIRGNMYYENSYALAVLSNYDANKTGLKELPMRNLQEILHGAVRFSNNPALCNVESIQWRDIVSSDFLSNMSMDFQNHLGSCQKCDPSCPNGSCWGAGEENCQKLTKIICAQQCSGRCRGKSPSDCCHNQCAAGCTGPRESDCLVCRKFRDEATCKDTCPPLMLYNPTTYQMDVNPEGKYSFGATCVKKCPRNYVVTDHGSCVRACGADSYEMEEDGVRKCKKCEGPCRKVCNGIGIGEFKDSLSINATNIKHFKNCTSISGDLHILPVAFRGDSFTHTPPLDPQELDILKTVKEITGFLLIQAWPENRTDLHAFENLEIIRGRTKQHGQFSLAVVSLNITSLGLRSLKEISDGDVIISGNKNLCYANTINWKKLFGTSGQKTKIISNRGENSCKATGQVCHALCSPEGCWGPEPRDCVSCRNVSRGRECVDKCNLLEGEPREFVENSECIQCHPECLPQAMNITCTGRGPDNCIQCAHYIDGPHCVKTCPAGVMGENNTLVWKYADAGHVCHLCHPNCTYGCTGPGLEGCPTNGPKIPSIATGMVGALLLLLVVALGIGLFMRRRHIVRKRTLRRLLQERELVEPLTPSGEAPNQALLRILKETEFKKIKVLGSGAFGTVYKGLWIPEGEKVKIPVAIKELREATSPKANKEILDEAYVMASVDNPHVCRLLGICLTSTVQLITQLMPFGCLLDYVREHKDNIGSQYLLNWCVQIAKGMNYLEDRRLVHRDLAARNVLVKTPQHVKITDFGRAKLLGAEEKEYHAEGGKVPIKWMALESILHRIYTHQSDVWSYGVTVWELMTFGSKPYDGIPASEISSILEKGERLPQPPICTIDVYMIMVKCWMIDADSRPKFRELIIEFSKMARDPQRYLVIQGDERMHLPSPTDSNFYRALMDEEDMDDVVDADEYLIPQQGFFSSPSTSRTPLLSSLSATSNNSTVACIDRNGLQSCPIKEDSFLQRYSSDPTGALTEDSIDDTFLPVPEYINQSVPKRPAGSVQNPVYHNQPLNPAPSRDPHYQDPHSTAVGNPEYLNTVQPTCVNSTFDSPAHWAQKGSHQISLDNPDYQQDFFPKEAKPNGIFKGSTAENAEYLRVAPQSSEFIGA
T1 sequence (P00533 25-1210 T790M/L858R): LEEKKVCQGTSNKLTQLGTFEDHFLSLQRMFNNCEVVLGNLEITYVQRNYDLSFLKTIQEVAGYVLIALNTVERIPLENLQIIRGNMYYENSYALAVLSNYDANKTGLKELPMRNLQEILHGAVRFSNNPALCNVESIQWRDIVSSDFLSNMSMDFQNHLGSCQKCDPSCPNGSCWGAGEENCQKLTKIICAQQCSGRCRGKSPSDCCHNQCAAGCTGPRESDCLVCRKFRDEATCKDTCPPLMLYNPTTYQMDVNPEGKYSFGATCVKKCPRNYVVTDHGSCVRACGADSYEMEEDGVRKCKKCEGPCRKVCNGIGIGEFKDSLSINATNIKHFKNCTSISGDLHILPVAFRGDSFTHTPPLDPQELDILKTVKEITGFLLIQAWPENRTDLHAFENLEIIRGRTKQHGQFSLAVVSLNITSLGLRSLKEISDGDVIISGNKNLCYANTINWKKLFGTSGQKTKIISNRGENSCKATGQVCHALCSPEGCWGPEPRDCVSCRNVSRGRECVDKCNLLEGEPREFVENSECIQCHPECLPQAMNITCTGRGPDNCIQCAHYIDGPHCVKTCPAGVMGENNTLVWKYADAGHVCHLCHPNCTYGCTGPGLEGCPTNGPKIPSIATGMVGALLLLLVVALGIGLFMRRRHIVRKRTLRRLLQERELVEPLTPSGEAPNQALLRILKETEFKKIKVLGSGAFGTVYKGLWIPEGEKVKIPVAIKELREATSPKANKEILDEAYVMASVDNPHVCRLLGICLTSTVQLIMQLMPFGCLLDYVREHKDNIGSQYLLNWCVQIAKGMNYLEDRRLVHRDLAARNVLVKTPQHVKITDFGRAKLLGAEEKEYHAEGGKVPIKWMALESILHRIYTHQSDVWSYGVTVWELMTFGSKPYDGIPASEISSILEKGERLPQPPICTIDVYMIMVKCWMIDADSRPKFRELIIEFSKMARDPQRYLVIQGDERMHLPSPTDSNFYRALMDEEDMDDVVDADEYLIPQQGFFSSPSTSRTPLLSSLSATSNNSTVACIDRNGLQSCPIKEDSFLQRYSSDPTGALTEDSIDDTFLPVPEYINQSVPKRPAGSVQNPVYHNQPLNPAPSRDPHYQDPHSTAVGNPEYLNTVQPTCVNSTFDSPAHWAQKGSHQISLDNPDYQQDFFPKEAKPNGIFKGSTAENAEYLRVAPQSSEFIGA

By DC50 is commonly meant the concentration at which degradation of the target reaches its halfway point. With `O=C1CC[C@H](Nc2ccc(C3CCN(CC(=O)N4CCC(Cc5ccc(-c6cc(F)c7c(c6)C(=O)N(C(C(=O)Nc6nccs6)c6ncn8c6CCC8)C7)cc5)CC4)CC3)c(F)c2)C(=O)N1` (stereo partly drawn) [Compound 60, 2-(6,7-dihydro-5H-pyrrolo[1,2-c]imidazol-1-yl)-2-[6-[4-[[1-[2-[4-[4-[[(3S)-2,6-dioxo-3-piperidyl]amino]-2-fluoro-phenyl]-1-piperidyl]acetyl]-4-piperidyl]methyl]phenyl]-4-fluoro-1-oxo-isoindolin-2-yl]-N-thiazol-2-yl-acetamide], the DC50 on EGFR L858R-T790M (Table 9A) is 50 to 150 nM; at EGFR L858R (Table 9A), less than 50 nM.
The corresponding values for `O=C1CC[C@H](Nc2ccc(C3CCN(CC(=O)N4CCC(c5ccc(-c6cc(F)c7c(c6)C(=O)N(C(C(=O)Nc6nccs6)c6ncn8c6CCC8)C7)cc5)CC4)CC3)cc2)C(=O)N1` (stereo partly drawn) [Compound 22, 2-(6,7-dihydro-5H-pyrrolo[1,2-c]imidazol-1-yl)-2-(6-(4-(1-(2-(4-(4-(((S)-2,6-dioxopiperidin-3-yl)amino)phenyl)piperidin-1-yl)acetyl)piperidin-4-yl)phenyl)-4-fluoro-1-oxoisoindolin-2-yl)-N-(thiazol-2-yl)acetamide] are less than 50 nM and less than 50 nM.
For `O=C1CCC(Nc2ccc(C3CCC(CC(=O)N4CCN(c5ccc(-c6cc(F)c7c(c6)C(=O)N(C(C(=O)Nc6nccs6)c6ncn8c6CCC8)C7)cc5)CC4)CC3)cc2)C(=O)N1` (stereo not drawn) [Compound 177, 2-(6,7-dihydro-5H-pyrrolo[1,2-c]imidazol-1-yl)-2-(6-(4-(4-(2-(4-(4-((2,6-dioxopiperidin-3-yl)amino)phenyl)cyclohexyl)acetyl)piperazin-1-yl)phenyl)-4-fluoro-1-oxoisoindolin-2-yl)-N-(thiazol-2-yl)acetamide], the half-maximal degradation concentration (DC50) on EGFR L858R-T790M (Table 9B) and on EGFR L858R (Table 9B) was less than 50 nM in each case.
With `Cn1nc(N2CCC(=O)NC2=O)c2ccc(C3CCN(C(=O)CN4CC5(C4)CN(c4ccc(-c6ccc7cn(C(C(=O)Nc8nccs8)c8ncn9c8CCC9)nc7c6F)cn4)C5)CC3(F)F)cc21` (stereo not drawn) [Compound 73, 2-(6,7-dihydro-5H-pyrrolo[1,2-c]imidazol-1-yl)-2-(6-(6-(6-(2-(4-(3-(2,4-dioxotetrahydropyrimidin-1(2H)-yl)-1-methyl-1H-indazol-6-yl)-3,3-difluoropiperidin-1-yl)-2-oxoethyl)-2,6-diazaspiro[3.3]heptan-2-yl)pyridin-3-yl)-7-fluoro-2H-indazol-2-yl)-N-(thiazol-2-yl)acetamide], the DC50 at EGFR L858R-T790M (Table 9B) and on EGFR L858R (Table 9B) was less than 50 nM throughout.
On to `O=C1CC[C@H](Nc2ccc(C3CCN(CC(=O)N4CCC(c5cnn(-c6cc(F)c7c(c6)C(=O)N(C(C(=O)Nc6nccs6)c6ncn8c6CCC8)C7)c5)CC4)CC3)cc2)C(=O)N1` (stereo partly drawn) [Compound 29, 2-(6,7-dihydro-5H-pyrrolo[1,2-c]imidazol-1-yl)-2-[6-[4-[1-[2-[4-[4-[[(3S)-2,6-dioxo-3-piperidyl]amino]phenyl]-1-piperidyl]acetyl]-4-piperidyl]pyrazol-1-yl]-4-fluoro-1-oxo-isoindolin-2-yl]-N-thiazol-2-yl-acetamide], for which the DC50 at EGFR L858R-T790M (Table 9A) and at EGFR L858R (Table 9A) was less than 50 nM in each case.
As for `O=C1CCC(Nc2ccc(C3CCN(C(=O)C(=O)N4CCC(Oc5ccc(-c6cc(F)c7c(c6)C(=O)N(C(C(=O)Nc6nccs6)c6ncn8c6CCC8)C7)cc5)CC4)CC3)cc2)C(=O)N1` (stereo not drawn) [Compound 40, 2-(6,7-dihydro-5H-pyrrolo[1,2-c]imidazol-1-yl)-2-[6-[4-[[1-[2-[4-[4-[(2,6-dioxo-3-piperidyl)amino]phenyl]-1-piperidyl]-2-oxo-acetyl]-4-piperidyl]oxy]phenyl]-4-fluoro-1-oxo-isoindolin-2-yl]-N-thiazol-2-yl-acetamide], the DC50 at EGFR L858R-T790M (Table 9A) and on EGFR L858R (Table 9A) was less than 50 nM in each case.
As for `O=C1CC[C@H](Nc2ccc(C3CCN(CC(=O)N4CC5(C4)CN(c4ccc(-c6cc(F)c7c(c6)C(=O)N(C(C(=O)Nc6ccccn6)c6ncn8c6CCC8)C7)cc4)C5)CC3)c(F)c2)C(=O)N1` (stereo partly drawn) [Compound 53, 2-(6,7-dihydro-5H-pyrrolo[1,2-c]imidazol-1-yl)-2-[6-[4-[2-[2-[4-[4-[[(3S)-2,6-dioxo-3-piperidyl]amino]-2-fluoro-phenyl]-1-piperidyl]acetyl]-2,6-diazaspiro[3.3]heptan-6-yl]phenyl]-4-fluoro-1-oxo-isoindolin-2-yl]-N-(2-pyridyl)acetamide], the 50% degradation concentration (DC50) at EGFR L858R-T790M (Table 9A) is 50 to 150 nM; on EGFR L858R (Table 9A) it was less than 50 nM.
Consider `O=C1CCC(Nc2ccc(N3CCC(O)(CC(=O)N4CCN(c5ccc(-c6cc(F)c7c(c6)C(=O)N(C(C(=O)Nc6nccs6)c6ncn8c6CCC8)C7)cc5)CC4)CC3)c(F)c2)C(=O)N1` (stereo not drawn) [Compound 83, 2-(6,7-dihydro-5H-pyrrolo[1,2-c]imidazol-1-yl)-2-[6-[4-[4-[2-[1-[4-[(2,6-dioxo-3-piperidyl)amino]-2-fluoro-phenyl]-4-hydroxy-4-piperidyl]acetyl]piperazin-1-yl]phenyl]-4-fluoro-1-oxo-isoindolin-2-yl]-N-thiazol-2-yl-acetamide], for which the half-maximal degradation concentration (DC50) at EGFR L858R-T790M (Table 9B) and at EGFR L858R (Table 9B) was less than 50 nM in each case.
Regarding `O=C1CC[C@H](Nc2ccc(C3CCN(CC(=O)N4CCN(c5ccc(-c6cc(F)c7cn(C(C(=O)Nc8nccs8)c8ncn9c8CCC9)nc7c6)cn5)CC4)CC3)c(F)c2)C(=O)N1` (stereo partly drawn) [Compound 68, 2-(6,7-dihydro-5H-pyrrolo[1,2-c]imidazol-1-yl)-2-(6-(6-(4-(2-(4-(4-(((S)-2,6-dioxopiperidin-3-yl)amino)-2-fluorophenyl)piperidin-1-yl)acetyl)piperazin-1-yl)pyridin-3-yl)-4-fluoro-2H-indazol-2-yl)-N-(thiazol-2-yl)acetamide], the DC50 on EGFR L858R-T790M (Table 9A) and on EGFR L858R (Table 9A) was less than 50 nM throughout.
Take `O=C1CCC(Nc2ccc(N3CCC(O)(CC(=O)N4CC5(C4)CN(c4ccc(-c6cc(F)c7c(c6)C(=O)N(C(C(=O)Nc6nccs6)c6ncn8c6CCC8)C7)cc4)C5)CC3)c(C(F)F)c2)C(=O)N1` (stereo not drawn) [Compound 104, 2-(6-(4-(6-(2-(1-(2-(difluoromethyl)-4-((2,6-dioxopiperidin-3-yl)amino)phenyl)-4-hydroxypiperidin-4-yl)acetyl)-2,6-diazaspiro[3.3]heptan-2-yl)phenyl)-4-fluoro-1-oxoisoindolin-2-yl)-2-(6,7-dihydro-5H-pyrrolo[1,2-c]imidazol-1-yl)-N-(thiazol-2-yl)acetamide]: the DC50 at EGFR L858R-T790M (Table 9B) and on EGFR L858R (Table 9B) was less than 50 nM each time.
Turning to `O=C1CC[C@H](Nc2ccc(C3CCN(CC(=O)N4C[C@H]5C[C@@H]4CN5c4ccc(-c5cc(F)c6c(c5)C(=O)N(C(C(=O)Nc5nccs5)c5ncn7c5CCC7)C6)cc4)CC3)c(F)c2)C(=O)N1` (stereo partly drawn) [Compound 80, 2-(6,7-dihydro-5H-pyrrolo[1,2-c]imidazol-1-yl)-2-(6-(4-((1R,4R)-5-(2-(4-(4-(((S)-2,6-dioxopiperidin-3-yl)amino)-2-fluorophenyl)piperidin-1-yl)acetyl)-2,5-diazabicyclo[2.2.1]heptan-2-yl)phenyl)-4-fluoro-1-oxoisoindolin-2-yl)-N-(thiazol-2-yl)acetamide], the results for the DC50 on EGFR L858R-T790M (Table 9B) and at EGFR L858R (Table 9B) were 50 to 150 nM and less than 50 nM, respectively.
The corresponding values for `O=C1CCC(Nc2ccc(C3CCN(CC(=O)N4CCN(c5ccc(-c6cc(F)c7c(c6)C(=O)N(C(C(=O)Nc6nccs6)c6ncn8c6CCC8)C7)cc5)CC4)CC3)c(F)c2)C(=O)N1` (stereo not drawn) [Compound 180, 2-(6,7-dihydro-5H-pyrrolo[1,2-c]imidazol-1-yl)-2-[6-[4-[4-[2-[4-[4-[(2,6-dioxo-3-piperidyl)amino]-2-fluoro-phenyl]-1-piperidyl]acetyl]piperazin-1-yl]phenyl]-4-fluoro-1-oxo-isoindolin-2-yl]-N-thiazol-2-yl-acetamide] are less than 50 nM and less than 50 nM.

(Values after patent US20240158418A1 (C4 Therapeutics, Inc., priority 2021, published 2024).)
